Read-outs that look alike come from different tables or passages of the source.
Columns and labels:
Formalin test = Formalin test - Score; format: in vivo, rodent; conditions: Senicapoc 100 mg/kg PO, 240 min after treatment
Protocol: (§1) Depending on the test, the percentage of activity was calculated from the mean value of the vehicle-treated animals and compared to naïve animals, control paw or cut-off value.

KCa3.1 = molecular target: T1, KCa3.1 (Rattus norvegicus, UniProt Q9QYW1); assay: Whole cell patch clamp of K+ currents in rat primary microglia; format: cell-based; conditions: read-out: IC50, inhibition of microglial K+ current
T1 construct: K^+ currents were recorded from primary microglia; endogenous in cells; host or cells: primary rat (cortical) microglia
Protocol: Primary rat microglia were plated at a density of 300,000/35 mm dish for 24 hours. Whole cell patch clamp recordings were performed using an EPC9 patch-clamp amplifier and PatchMaster software (HEKA Instruments Inc.). The cell's membrane potential was held at −60 mV. External solution contained (in mM): 140 NaCl, 4 KCl, […], 1.8 CaCl2, 10 HEPES, 10 Glucose, pH 7.4. Patch solution contained (in mM): 140 […], 11 EGTA, 2 MgCl2, 10 HEPES, pH 7.2. Drugs were applied by gravity and selected with a capillary tube placed in close proximity to the recording dish. BzATP (Sigma-Aldrich, St. Louis, Mo.) was applied for 10 seconds.
KCa3.1 is highly expressed on microglia in vitro (Kaushal et al., 2007). […] Some residual K^+ current still remained which was most likely not KCa3.1-sensitive (Kettenmann et al., 2011)

[1] = Rat screening pharmacokinetics: plasma, brain, CSF exposure; format: in vivo; conditions: Screening PK, 10 mg/kg PO; for CSF / Free Brain / Free Plasma / concentration at 1 h / concentration at 4 h: 10 mg/kg; for concentration at 1 h / concentration at 4 h: po
Protocol: (§2) Male Sprague-Dawley rats (Crl:SD, Charles River) weighing 200-350 g were dosed to determine tissue exposure at 10 mg/kg p.o. (n=3) for screening pharmacokinetics (PK), and at 10, 30 and 100 mg/kg p.o. for the CCI studies (n=3 from each treatment group taken from the last arm of study). […] The rats were then decapitated and trunk blood was collected to in K3EDTA containing tubes. Plasma samples were generated by centrifugation (3500×g), and stored frozen at −20° C. until bioanalysis. The brains were harvested immediately following blood collection and stored frozen until bioanalysis at −20° C. For CCI animals, the plasma and brain harvests as described for the screening PK, although the tissue collection was initiated after the behavioral assessment was completed, approximately 4 hours 15 minutes after dosing. For spinal column harvest, a 20-gauge needle on a 10 ml syringe filled with cold saline was inserted into the spinal cord. The saline was used to flush the spinal column out. The spinal column tissues were then stored frozen at −20° C. prior to exposure measurements.
(§3) Prior to analysis, the brain and spinal cord samples were thawed at room temperature, weighed and homogenized using a homogenizing solution (IPA/H2O/DMSO; 30:50:20) at a ratio of 3/1 (ml/g) to generate tissue homogenates. An aliquot of 50 μl plasma, or 50 μl brain and spinal cord homogenates is mixed with 150 μl of a DMSO/ACN (20:80) solution that contains an internal standard (50 ng/ml). The diluted plasma, brain and spinal cord sample is then centrifuged (˜500 g for 15 min at 10° C.), supernatant is removed and then injected (10 μl) onto LC/MS/MS system for analysis. An Atlantis T3 column 2.6μ C18, 50×2.1 mm (Waters, Mass.) was used for analytical separation of the acid. A 6-minute mobile phase gradient was employed with mobile phase A (0.1% formic acid in water) ramping down from 99% to 1% (0-4 minutes), and then ramping back up to 99% (4-6 minutes), while ramping up solvent B (1% formic acid in ACN), from 1% to 99% (0-4 minutes), and then ramping down to 1% (4-6 minutes). Spectra was acquired in positive SRM mode with the parent mass of 324 and a daughter ion of 228.

[2] = Plasma, brain and spinal cord exposure in CCI rats; format: in vivo, rat; conditions: for Kp at 4 h / concentration at 4 h: male, Sprague-Dawley, rat; for concentration at 4 h: po
Protocol: as §2, §3

[3] = Plasma and brain free fraction by equilibrium dialysis; format: in vitro ADME, rat; design: dose or concentration left out as unconfirmed
Protocol: Briefly, naive plasma and brain tissues were homogenized in 3× and 4× w/v in homogenization buffer (50:30:20 H2O:IPA:DMS0), respectively. […] Following equilibration, the buffer sample was fortified with a fixed volume of blank tissue homogenate and the tissue sample was fortified with a fixed volume of buffer. Protein precipitation was performed with ice cold acetonitrile in the presence of an analytical internal standard. The supernatants were quantified for senicapoc using LC-MS/MS as described earlier.

Healthy rats = Healthy rats - Tail flick test; format: in vivo; conditions: Senicapoc 100 mg/kg PO, 240 min after treatment
Protocol: as §1

NC(=O)C(c1ccccc1)(c1ccc(F)cc1)c1ccc(F)cc1 [Senicapoc]
% of activity vs. vehicle (Formalin test; early phase): 14%
% of activity vs. vehicle (Formalin test; late phase): 8%
IC50 (KCa3.1): 10 nM
CSF ([1]; 1 h, mean ± SD): 25 ± 16 nM
Free Brain ([1]; 1 h, UBBr = 0.008): 37 ± 16 nM
Free Plasma ([1]; 1 h, UBP = 0.027): 17 ± 9 nM
CSF ([1]; 4 h, mean ± SD): 121 ± 62 nM
Free Brain ([1]; 4 h, UBBr = 0.008): 136 ± 50 nM
Free Plasma ([1]; 4 h, UBP = 0.027): 65 ± 22 nM
concentration at 1 h ([1]; male, Sprague-Dawley, rat, brain, 1 h, mean ± SD, read-out: Brain): 4660 ± 1990 nM
concentration at 1 h ([1]; male, Sprague-Dawley, rat, brain, 1 h, UBBr = 0.008, read-out: Free Brain): 37 nM
concentration at 4 h ([1]; male, Sprague-Dawley, rat, brain, 4 h, mean ± SD, read-out: Brain): 16900 ± 6040 nM
concentration at 4 h ([1]; male, Sprague-Dawley, rat, brain, 4 h, UBBr = 0.008, read-out: Free Brain): 136 nM
Kp at 1 h ([1]; male, Sprague-Dawley, rat, brain, 1 h, read-out: Free Brain/Free Plasma): 2.2
Kp at 4 h ([1]; male, Sprague-Dawley, rat, brain, 4 h, read-out: Free Brain/Free Plasma): 2.1
concentration at 1 h ([1]; male, Sprague-Dawley, rat, plasma, 1 h, mean ± SD, read-out: Plasma): 637 ± 322 nM
concentration at 1 h ([1]; male, Sprague-Dawley, rat, plasma, 1 h, UBP = 0.027, read-out: Free Plasma): 17 nM
concentration at 4 h ([1]; male, Sprague-Dawley, rat, plasma, 4 h, mean ± SD, read-out: Plasma): 2390 ± 748 nM
concentration at 4 h ([1]; male, Sprague-Dawley, rat, plasma, 4 h, UBP = 0.027, read-out: Free Plasma): 65 nM
concentration at 1 h ([1]; male, Sprague-Dawley, rat, 1 h, mean ± SD, read-out: CSF): 25 nM
concentration at 4 h ([1]; male, Sprague-Dawley, rat, 4 h, mean ± SD, read-out: CSF): 121 nM
Spinal Cord ([2]; 10 mg/kg PO, 4 h, LLQ 773 nM): <LLQ^γ
Plasma ([2]; 10 mg/kg PO, 4 h, n = 1 (2 samples <LLQ 773 nM)): 782^£ nM
Free Plasma ([2]; 10 mg/kg PO, 4 h, n = 1, UBP = 0.027): 21^£ nM
Kp at 4 h ([2]; brain, 10 mg/kg PO, read-out: Free Brain/Free Plasma): 1.1 ± 0.1
Kp at 4 h ([2]; brain, 30 mg/kg PO, read-out: Free Brain/Free Plasma): 0.9 ± 0.1
Kp at 4 h ([2]; brain, 100 mg/kg PO, read-out: Free Brain/Free Plasma): 1 ± 0.2
concentration at 4 h ([2]; brain, 10 mg/kg, 10 mg/kg PO, UBBr = 0.008, read-out: Free Brain): 22 ± 1 nM
concentration at 4 h ([2]; brain, 10 mg/kg, 10 mg/kg PO, mean ± SD, read-out: Brain): 2770 ± 380 nM
concentration at 4 h ([2]; brain, 30 mg/kg, 30 mg/kg PO, UBBr = 0.008, read-out: Free Brain): 51 ± 16 nM
concentration at 4 h ([2]; brain, 30 mg/kg, 30 mg/kg PO, mean ± SD, read-out: Brain): 6420 ± 1960 nM
concentration at 4 h ([2]; brain, 100 mg/kg, 100 mg/kg PO, UBBr = 0.008, read-out: Free Brain): 106 ± 21 nM
concentration at 4 h ([2]; brain, 100 mg/kg, 100 mg/kg PO, mean ± SD, read-out: Brain): 13300 ± 2620 nM
concentration at 4 h ([2]; plasma, 30 mg/kg, 30 mg/kg PO, UBP = 0.027, read-out: Free Plasma): 56 ± 12 nM
concentration at 4 h ([2]; plasma, 30 mg/kg, 30 mg/kg PO, mean ± SD, read-out: Plasma): 2060 ± 452 nM
concentration at 4 h ([2]; plasma, 100 mg/kg, 100 mg/kg PO, UBP = 0.027, read-out: Free Plasma): 103 ± 3 nM
concentration at 4 h ([2]; plasma, 100 mg/kg, 100 mg/kg PO, mean ± SD, read-out: Plasma): 3800 ± 93 nM
Kp at 4 h ([2]; spinal cord, 30 mg/kg PO, read-out: Free Spinal Cord/Free Plasma): 0.8 ± 0.6
Kp at 4 h ([2]; spinal cord, 100 mg/kg PO, read-out: Free Spinal Cord/Free Plasma): 0.7 ± 0.3
concentration at 4 h ([2]; spinal cord, 30 mg/kg, 30 mg/kg PO, brain free fraction 0.008 used, read-out: Free Spinal Cord): 38 ± 17 nM
concentration at 4 h ([2]; spinal cord, 30 mg/kg, 30 mg/kg PO, mean ± SD, read-out: Spinal Cord): 3400 ± 2740 nM
concentration at 4 h ([2]; spinal cord, 100 mg/kg, 100 mg/kg PO, brain free fraction 0.008 used, read-out: Free Spinal Cord): 95 ± 17 nM
concentration at 4 h ([2]; spinal cord, 100 mg/kg, 100 mg/kg PO, mean ± SD, read-out: Spinal Cord): 11900 ± 2180 nM
fraction unbound at 2.5 h ([3]; brain homogenate (4x w/v in homogenization buffer), rat brain homogenate, read-out: In vitro rat brain free fraction (UBBr)): 0.008
fraction unbound at 2.5 h ([3]; plasma (diluted 3x w/v in homogenization buffer), rat plasma, read-out: In vitro rat plasma free fraction (UBP)): 0.027
% of activity vs. vehicle (Healthy rats): 9%

Reference: US11439607B2 (Paracelsus Neuroscience I, LLC, priority 2016, dated 2022)
